# In BindingDB's records for doi:10.1021/jm960012o (Allergan, 1996):
# Test: Displacement of [3H]-clonidine from bovine imidazoline receptor I-1
row,SMILES,Ki [nM]
1,"Clc1cccc(Cl)c1N=C1NCCN1 [2-(2,6-dichloroanilino)-2-imidazoline]",8.9
2,CC(C)C1C2CCC(C2)C1N (centres undefined) [3-Isopropyl-bicyclo[2.2.1]hept-2-ylamine],42
3,"NC[C@H](O)c1ccc(O)c(O)c1 [4-[(1R)-2-amino-1-hydroxyethyl]benzene-1,2-diol]",> 100000
4,COc1nc(C)nc(Cl)c1N=C1NCCN1 [(4-Chloro-6-methoxy-2-methyl-pyrimidin-5-yl)-imidazolidin-2-ylidene-amine],56
